According to ChEMBL document CHEMBL1201862, “PubChem BioAssay data set” (2004):
pIC50: −log10 of the molar value. Active and inactive are the calls of the source.

Assays:
[1] = target: T1, Sentrin-specific protease 1 (Homo sapiens, UniProt Q9P0U3); experiment: Dose response confirmation of small molecule inhibitors of the catalytic domain of the SUMO protease, SENP1 in a FRET assay.; type: functional; details: read-out: IC50_Mean
T1 sequence (Q9P0U3 whole entry): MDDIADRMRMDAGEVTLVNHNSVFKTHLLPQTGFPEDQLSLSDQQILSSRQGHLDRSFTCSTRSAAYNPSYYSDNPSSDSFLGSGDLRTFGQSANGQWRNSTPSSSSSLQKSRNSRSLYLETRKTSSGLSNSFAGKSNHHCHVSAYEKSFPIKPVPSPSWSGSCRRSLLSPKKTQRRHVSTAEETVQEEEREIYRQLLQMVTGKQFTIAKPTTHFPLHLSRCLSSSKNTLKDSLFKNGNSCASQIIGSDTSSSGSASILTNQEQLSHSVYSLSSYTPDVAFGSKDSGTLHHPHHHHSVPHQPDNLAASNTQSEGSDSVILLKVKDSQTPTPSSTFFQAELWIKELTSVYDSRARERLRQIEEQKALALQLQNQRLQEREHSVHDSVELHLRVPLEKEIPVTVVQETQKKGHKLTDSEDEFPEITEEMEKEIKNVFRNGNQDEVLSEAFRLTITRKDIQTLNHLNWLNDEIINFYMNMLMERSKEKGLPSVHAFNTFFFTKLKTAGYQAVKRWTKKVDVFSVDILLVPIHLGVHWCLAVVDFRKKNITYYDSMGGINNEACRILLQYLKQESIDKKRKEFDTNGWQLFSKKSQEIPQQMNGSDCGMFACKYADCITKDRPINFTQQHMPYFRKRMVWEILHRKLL

[2] = target: T2, Endoribonuclease toxin MazF (Escherichia coli K-12, UniProt P0AE70); experiment: activation of MazEF endoribonuclease cleavage – biochemical, fluorescence, single-stranded RNA substrate, uHTS hits, dose response (AID 588481); type: functional
T2 sequence (P0AE70 whole entry): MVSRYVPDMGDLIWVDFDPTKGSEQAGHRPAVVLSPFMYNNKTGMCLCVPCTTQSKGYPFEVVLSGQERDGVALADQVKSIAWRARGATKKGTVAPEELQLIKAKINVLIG

[3] = target: T2, Endoribonuclease toxin MazF; experiment: substrate-only fluorescence increase artefacts – biochemical, single-stranded RNase substrate, counter-screen for MazEF activator project, dose response (AID 588502); type: functional
[4] = target: T1, Sentrin-specific protease 1; experiment: SENP1 catalytic domain blockers, concentration series – biochemical, kinetic FRET, dose response (AID 651697); type: functional; details: read-out: IC50_Mean
Beta Lactamase = Beta Lactamase (Pseudomonas aeruginosa, UniProt Q932Y6); experiment: BLA reporter interference, concentration series – BLA reporter cells, FRET fluorescence, artefact control for TLR9-MyD88 binding inhibitor project, dose response (AID 588341); type: cell-based;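 note: cell based assay in CHO-K1 cells stably expressing beta-lactamase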
Beta Lactamase, sequence (Q932Y6 whole entry, the tested form may be a part): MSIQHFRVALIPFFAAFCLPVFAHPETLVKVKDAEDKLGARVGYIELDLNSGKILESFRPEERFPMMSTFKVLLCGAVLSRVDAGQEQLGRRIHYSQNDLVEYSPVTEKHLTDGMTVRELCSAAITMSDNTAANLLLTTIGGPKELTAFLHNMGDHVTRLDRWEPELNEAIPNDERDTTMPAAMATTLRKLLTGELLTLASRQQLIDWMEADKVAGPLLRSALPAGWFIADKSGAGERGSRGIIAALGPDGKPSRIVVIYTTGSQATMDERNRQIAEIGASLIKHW

CHO = CHO cell viability loss, potency – luminescence, cytotoxicity control for TLR9-MyD88 binding inhibitor project, dose response (AID 588339); type: functional, cell-based, hamster; details: Cricetulus griseus;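 note: CHO cells stably coexpressing TLR9 and MyD88 fusions from primary screen; compound exposure lasted 48 hours before viability readout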
Hexokinase HKDC1 = target: T3, Hexokinase HKDC1 (Homo sapiens, UniProt Q2TB90); experiment: SAR analysis of small molecule inhibitors of hexokinase domain containing I (HKDC1). [Related pubchem assays (depositor defined):AID493160, AID493190]; type: functional
T3 sequence (Q2TB90 whole entry): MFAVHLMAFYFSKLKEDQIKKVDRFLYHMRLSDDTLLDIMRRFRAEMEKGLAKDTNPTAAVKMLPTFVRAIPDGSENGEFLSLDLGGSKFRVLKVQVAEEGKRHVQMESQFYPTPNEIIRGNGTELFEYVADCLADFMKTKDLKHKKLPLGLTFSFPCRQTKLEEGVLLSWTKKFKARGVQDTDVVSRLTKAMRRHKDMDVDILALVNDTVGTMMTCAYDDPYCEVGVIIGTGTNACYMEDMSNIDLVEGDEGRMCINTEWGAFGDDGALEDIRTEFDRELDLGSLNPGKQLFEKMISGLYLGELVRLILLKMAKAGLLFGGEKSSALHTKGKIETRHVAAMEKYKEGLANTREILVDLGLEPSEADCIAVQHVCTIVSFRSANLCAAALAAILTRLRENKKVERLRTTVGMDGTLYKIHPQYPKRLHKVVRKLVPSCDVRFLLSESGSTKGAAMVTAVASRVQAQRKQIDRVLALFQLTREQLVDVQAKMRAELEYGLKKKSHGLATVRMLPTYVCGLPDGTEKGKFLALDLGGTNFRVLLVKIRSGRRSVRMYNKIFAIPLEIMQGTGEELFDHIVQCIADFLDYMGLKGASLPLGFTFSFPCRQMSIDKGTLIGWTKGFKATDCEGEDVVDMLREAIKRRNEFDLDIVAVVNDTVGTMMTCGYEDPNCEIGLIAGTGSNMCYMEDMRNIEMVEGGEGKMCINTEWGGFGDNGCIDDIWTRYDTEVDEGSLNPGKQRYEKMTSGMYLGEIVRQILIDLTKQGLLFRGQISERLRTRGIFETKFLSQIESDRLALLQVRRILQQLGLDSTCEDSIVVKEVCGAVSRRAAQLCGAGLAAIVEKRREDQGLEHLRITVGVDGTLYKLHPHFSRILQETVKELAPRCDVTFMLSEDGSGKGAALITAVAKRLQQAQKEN

Hexokinase-1 = target: T4, Hexokinase-1 (Homo sapiens, UniProt P19367); experiment: SAR analysis of small molecule inhibitors of hexokinase domain containing I (HKDC1) in the hexokinase 1 selectivity assay. [Related pubchem assays (depositor defined):AID493160, AID493190]; type: functional
T4 sequence (P19367 whole entry): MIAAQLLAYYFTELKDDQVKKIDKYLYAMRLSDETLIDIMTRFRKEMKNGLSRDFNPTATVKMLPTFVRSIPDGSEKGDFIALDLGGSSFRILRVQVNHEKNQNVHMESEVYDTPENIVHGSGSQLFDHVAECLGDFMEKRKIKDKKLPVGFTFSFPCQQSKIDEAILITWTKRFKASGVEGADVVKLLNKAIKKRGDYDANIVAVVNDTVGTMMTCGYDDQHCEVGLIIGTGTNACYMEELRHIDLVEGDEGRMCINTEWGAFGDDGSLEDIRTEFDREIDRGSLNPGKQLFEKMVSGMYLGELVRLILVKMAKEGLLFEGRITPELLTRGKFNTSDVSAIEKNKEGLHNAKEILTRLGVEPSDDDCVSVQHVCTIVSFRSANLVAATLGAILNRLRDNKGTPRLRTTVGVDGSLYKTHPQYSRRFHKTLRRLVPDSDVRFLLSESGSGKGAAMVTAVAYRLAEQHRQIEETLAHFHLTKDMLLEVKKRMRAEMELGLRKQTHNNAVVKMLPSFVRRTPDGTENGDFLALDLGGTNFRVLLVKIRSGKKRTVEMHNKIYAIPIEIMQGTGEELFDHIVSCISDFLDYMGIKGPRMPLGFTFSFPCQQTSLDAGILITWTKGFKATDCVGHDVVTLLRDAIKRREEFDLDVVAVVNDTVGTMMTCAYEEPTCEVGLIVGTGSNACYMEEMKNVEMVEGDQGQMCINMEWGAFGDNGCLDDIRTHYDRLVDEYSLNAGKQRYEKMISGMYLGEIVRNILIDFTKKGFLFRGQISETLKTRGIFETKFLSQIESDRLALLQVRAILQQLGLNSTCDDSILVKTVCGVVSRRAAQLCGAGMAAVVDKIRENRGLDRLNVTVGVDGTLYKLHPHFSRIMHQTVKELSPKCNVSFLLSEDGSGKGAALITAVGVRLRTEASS

Streptococcus = experiment: GAS UMAA2166 growth inhibition – luminescence, BacTiterGlo, counter-screen for streptokinase expression inhibitor project, dose response (AID 1915); type: functional, organism-based; details: Streptococcus;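 note: potency for reduction of bacterial viability or growth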
Paired box protein Pax-8 = Paired box protein Pax-8 (Homo sapiens, UniProt Q06710); experiment: PAX8 transcriptional activity inhibition in RMG-I – RMG-I cells, luciferase, cherry-pick, dose response (AID 687027); type: functional, cell-based;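 note: luciferase reporter driven by Pax8 target thyroperoxidase promoter measured by SteadyGlo luminescence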
Paired box protein Pax-8, sequence (Q06710 whole entry): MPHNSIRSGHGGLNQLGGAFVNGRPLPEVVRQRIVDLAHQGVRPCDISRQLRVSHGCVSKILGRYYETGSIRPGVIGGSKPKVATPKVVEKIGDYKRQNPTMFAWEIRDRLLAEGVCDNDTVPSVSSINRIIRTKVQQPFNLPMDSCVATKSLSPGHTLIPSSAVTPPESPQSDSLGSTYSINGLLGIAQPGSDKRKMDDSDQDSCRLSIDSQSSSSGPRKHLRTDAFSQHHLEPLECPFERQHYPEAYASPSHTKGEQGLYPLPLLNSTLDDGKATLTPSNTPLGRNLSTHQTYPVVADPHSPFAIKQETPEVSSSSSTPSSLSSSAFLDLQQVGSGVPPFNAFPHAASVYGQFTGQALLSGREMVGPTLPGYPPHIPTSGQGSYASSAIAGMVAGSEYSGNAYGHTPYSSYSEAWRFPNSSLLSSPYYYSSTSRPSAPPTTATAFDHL

cells [5] = type: functional, cell-based
[6] = target: T5, Kappa-type opioid receptor (Homo sapiens, UniProt P41145); type: functional
T5 sequence (P41145 whole entry): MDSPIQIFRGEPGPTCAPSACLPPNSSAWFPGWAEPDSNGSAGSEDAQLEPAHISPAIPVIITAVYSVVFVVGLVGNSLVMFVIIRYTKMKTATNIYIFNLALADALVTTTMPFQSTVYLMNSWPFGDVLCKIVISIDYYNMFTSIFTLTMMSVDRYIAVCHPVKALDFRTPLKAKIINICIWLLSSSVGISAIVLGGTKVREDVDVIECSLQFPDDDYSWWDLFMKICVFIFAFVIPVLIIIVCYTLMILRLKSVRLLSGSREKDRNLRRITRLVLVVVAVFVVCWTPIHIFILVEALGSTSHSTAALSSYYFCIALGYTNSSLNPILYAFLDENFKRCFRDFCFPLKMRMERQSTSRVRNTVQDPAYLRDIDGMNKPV

[7] = target: Serine/threonine-protein phosphatase (Candida dubliniensis (strain CD36 / CBS 7987 / NCPF 3949 / NRRLY-17841) (Yeast), UniProt B9W6M3); experiment: blockers of CaCl2-induced CDRE-lacZ signaling – S. cerevisiae, luminescence, secondary, dose response (AID 2388); type: functional, cell-based;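 note: yeast reporter cells carrying a calcineurin-responsive lacZ construct stimulated with calcium chloride; luminescent beta-galactosidase reporter signal in whole cells rather than isolated phosphatase activity; potency for inhibition where a drop in reporter signal means calcineurin blockade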
Serine/threonine-protein phosphatase, sequence (B9W6M3 whole entry): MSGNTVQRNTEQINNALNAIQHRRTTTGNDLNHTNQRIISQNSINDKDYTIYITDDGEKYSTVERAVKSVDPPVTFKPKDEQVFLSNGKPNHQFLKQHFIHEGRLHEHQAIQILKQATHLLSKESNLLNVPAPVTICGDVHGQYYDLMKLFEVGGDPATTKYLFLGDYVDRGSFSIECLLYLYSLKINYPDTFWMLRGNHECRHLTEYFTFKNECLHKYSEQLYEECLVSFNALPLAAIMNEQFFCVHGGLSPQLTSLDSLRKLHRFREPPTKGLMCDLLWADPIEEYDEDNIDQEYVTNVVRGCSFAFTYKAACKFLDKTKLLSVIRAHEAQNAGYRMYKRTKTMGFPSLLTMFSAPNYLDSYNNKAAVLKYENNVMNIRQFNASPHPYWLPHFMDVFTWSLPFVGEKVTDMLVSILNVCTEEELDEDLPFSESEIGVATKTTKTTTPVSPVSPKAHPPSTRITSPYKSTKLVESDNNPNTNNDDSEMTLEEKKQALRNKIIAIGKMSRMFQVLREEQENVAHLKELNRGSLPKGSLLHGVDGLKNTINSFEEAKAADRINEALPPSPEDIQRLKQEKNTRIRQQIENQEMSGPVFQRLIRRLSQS

[8] = target: ATP-dependent molecular chaperone HSP82 (Candida albicans (strain WO-1) (Yeast), UniProt C4YTQ8); experiment: steroid-induced GRE reporter decrease in yeast – S. cerevisiae, luminescence, Hsp90 inhibitor project, dose response (AID 2400); type: functional, cell-based;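 note: beta-galactosidase luminescence from glucocorticoid response element reporter as proxy for Hsp90 function; inhibitor potency where signal loss means Hsp90 inhibition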
ATP-dependent molecular chaperone HSP82, sequence (C4YTQ8 whole entry): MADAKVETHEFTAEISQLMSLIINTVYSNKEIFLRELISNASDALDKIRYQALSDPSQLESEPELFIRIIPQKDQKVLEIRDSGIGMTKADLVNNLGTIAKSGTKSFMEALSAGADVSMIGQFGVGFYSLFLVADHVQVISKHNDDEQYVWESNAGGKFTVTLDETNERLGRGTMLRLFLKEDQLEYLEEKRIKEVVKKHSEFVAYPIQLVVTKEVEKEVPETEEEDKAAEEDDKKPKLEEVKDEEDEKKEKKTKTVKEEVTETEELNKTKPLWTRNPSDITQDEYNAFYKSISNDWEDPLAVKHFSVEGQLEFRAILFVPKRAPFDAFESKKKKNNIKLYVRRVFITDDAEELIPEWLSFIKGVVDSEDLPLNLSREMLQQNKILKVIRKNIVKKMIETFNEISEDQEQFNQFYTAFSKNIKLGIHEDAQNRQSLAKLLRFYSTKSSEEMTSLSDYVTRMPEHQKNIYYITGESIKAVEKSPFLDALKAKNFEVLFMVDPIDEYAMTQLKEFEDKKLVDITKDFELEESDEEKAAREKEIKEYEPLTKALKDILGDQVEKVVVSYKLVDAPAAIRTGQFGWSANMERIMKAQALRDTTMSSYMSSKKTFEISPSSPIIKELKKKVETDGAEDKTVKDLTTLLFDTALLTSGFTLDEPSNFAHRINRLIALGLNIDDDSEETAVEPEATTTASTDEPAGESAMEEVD

INS1 = experiment: INS-1E survival protection against cytokine death – cell-based, luminescence, retest, dose response (AID 449756); type: functional; details: Rattus norvegicus;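 note: cell death triggered by IL-1 beta plus TNF-alpha plus IFN-gamma mixture; protective hits raise ATP signal compared with cytokine alone wells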
Beta-galactosidase = Beta-galactosidase (Escherichia coli, UniProt Q8VNN2); type: functional
Beta-galactosidase, sequence (Q8VNN2 whole entry): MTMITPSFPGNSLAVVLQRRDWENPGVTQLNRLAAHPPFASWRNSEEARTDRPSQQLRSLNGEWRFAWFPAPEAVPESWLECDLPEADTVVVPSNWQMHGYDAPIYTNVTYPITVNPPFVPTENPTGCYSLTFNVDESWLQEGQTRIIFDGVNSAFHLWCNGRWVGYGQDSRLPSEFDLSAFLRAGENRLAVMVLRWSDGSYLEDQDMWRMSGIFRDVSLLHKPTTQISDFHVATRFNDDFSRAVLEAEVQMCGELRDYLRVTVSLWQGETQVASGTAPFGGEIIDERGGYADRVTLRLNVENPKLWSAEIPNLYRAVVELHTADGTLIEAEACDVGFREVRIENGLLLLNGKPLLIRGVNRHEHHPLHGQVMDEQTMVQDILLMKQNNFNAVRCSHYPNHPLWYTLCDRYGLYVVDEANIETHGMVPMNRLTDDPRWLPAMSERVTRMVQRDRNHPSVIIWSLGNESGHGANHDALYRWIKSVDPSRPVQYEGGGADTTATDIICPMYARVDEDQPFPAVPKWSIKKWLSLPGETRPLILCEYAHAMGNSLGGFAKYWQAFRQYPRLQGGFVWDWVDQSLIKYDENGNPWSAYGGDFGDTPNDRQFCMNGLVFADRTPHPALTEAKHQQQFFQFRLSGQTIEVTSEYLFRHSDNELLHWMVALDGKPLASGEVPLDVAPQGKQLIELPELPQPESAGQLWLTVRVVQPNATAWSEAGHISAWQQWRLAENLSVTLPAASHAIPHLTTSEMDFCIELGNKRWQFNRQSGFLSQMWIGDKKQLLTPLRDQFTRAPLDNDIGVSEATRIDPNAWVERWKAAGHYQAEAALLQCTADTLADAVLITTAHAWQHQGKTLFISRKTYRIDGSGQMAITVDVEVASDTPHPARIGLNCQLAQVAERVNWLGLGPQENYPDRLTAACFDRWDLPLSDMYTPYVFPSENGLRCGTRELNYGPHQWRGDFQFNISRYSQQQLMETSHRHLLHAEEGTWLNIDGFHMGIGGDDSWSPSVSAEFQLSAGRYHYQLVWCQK

cells [9] = type: functional, cell-based; remark: listed apart in the source
[10] = microbe, parasite or virus in culture; type: functional; details: Mycobacterium tuberculosis
[11] = fluconazole-exposed Candida albicans growth modulators – fluorescence, retest, confirmation (AID 2467); type: functional, cell-based
[12] = HEK-293T viability loss after treatment – luminescence, T-cell screen hits, cytotoxicity control for TCR NF-kB inhibitor project, dose response (AID 489026); type: functional, cell-based;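 note: cells exposed to compound about 14 hours before the viability readout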
[13] = target: T5, Kappa-type opioid receptor; type: functional; remark: listed apart in the source
Streptokinase A = target: T6, Streptokinase A (Streptococcus pyogenes serotype M1, UniProt P10520); experiment: viability-normalized secreted streptokinase activity reduction – plasminogen activation absorbance, OD405, dose response (AID 1914); type: functional, Streptococcus pyogenes M1 GAS;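 note: secreted streptokinase activity via plasminogen activation per viability signal from cell pellet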
T6 sequence (P10520 whole entry): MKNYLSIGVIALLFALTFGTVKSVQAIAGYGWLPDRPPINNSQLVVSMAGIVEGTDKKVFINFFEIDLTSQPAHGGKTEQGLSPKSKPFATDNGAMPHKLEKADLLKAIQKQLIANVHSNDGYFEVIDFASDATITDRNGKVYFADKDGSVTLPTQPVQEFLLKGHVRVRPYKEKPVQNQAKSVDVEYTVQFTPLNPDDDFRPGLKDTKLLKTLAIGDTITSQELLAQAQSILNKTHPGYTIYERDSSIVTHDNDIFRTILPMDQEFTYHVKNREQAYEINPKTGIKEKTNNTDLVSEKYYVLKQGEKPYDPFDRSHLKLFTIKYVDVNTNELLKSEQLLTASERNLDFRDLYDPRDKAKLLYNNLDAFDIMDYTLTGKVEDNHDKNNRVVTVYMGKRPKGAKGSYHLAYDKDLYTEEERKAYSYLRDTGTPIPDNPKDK

Nonstructural protein 1 = Nonstructural protein 1 (Influenza A virus, UniProt Q194T2); type: functional, Influenza A virus (A/California/07/2009(H1N1))
Nonstructural protein 1, sequence (Q194T2 whole entry): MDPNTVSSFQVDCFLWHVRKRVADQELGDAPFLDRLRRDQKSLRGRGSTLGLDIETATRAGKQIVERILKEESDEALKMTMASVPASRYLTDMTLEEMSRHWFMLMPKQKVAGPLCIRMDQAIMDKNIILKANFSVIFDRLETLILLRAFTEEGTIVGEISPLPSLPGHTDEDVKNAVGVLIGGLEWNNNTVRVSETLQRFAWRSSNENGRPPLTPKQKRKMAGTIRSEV

[14] = test system: Streptococcus sp. 'group A'; experiment: Streptococcus pyogenes SK(-)GAS viability under kanamycin – luminescence, BacTiterGlo, confirmation, counter-screen for streptokinase expression inhibitor project, dose response (AID 1900); type: functional, organism-based; details: Streptococcus sp. 'group A'
HEK293 = experiment: EBV LMP1 TES2 canonical NF-kB signalling blockers – cell-based, HEK293, luciferase, cherry-pick, dose response (AID 588343); type: functional; details: Homo sapiens
[15] = NIH-3T3 fibroblast cytotoxicity, dose response, cytotoxicity control, cell-based, fluorescence, Alamar Blue, secondary assay (AID 2327); type: functional;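 note: NIH-3T3 mouse fibroblasts cultured with fluconazole at 8 µg/mL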

Cc1ccc2nc3sc(C(=O)NCc4ccco4)c(N)c3cc2c1
IC50 [1]: 7.17 µM (active) | EC50 [2]: > 99 µM (inactive) | EC50 [3]: 65.2 µM (inactive) | IC50 [4]: 4.66 µM (active)

Cc1cc(C)n(-c2nc3ccccc3nc2Nc2ccc3[nH]c(O)nc3c2)n1
EC50 [2]: > 99 µM (inactive) | EC50 [3]: > 99 µM (inactive)

CCC(=O)c1ccc(/C=C/c2nc3ccccc3n2C)o1
IC50 (Beta Lactamase): 5.11 µM (active) | IC50 (CHO): > 49.7 µM (inactive)

O=C(Nc1cccc(C(F)(F)F)c1)c1cccc(NC(=O)c2cccc3ccccc23)c1
IC50 (Hexokinase HKDC1): > 80 µM (inactive) | IC50 (Hexokinase-1): > 80 µM (inactive)

O=C(Nc1cccc(C(F)(F)F)c1)c1cccc(NC(=O)c2ccc3[nH]nnc3c2)c1
IC50 (Hexokinase HKDC1): > 80 µM (inactive) | IC50 (Hexokinase-1): > 80 µM (inactive)

C=CCNC(=S)N/N=C(\C)c1ccccn1
EC50 (Streptococcus): > 150 µM (not active) | AC50 (Paired box protein Pax-8): < 0.26 µM (active) | EC50 (cells [5]): > 350 µM (not active) | IC50 [6]: 3.27 µM (active) | EC50 [7]: > 180 µM (inactive) | EC50 [8]: > 150 µM (inactive) | AC50 (INS1): < 0.195 µM (active) | EC50 (Beta-galactosidase): > 31.5 µM (inactive) | EC50 (cells [9]): 9.83 µM (active) | CC50 [10]: < 0.08 µM (active) | EC50 [11]: 0.146 µM (active) | IC50 [12]: > 80 µM (inactive) | pIC50 [13]: < 4.49 | EC50 (Streptokinase A): > 150 µM (not active) | IC50 (Nonstructural protein 1): 2.5 µM (active) | EC50 [14]: 2 µM (active) | AC50 (HEK293): 0.493 µM (active) | EC50 [15]: 40.7 µM (inconclusive)
